Laboratory results from publication PMC10531082, “Antiproliferative and Antimetastatic Properties of 16-Azidomethyl Substituted 3-O-Benzyl Estrone Analogs” (International Journal of Molecular Sciences, 2023).
Like-named read-outs stand apart in the source and are kept apart here.

How the values were obtained:
HeLa [1] = assay: cells; set-up: MTT antiproliferative assay, absorbance at 545 nm, inhibition versus untreated control; conditions: Homo sapiens; for inhibition at 10 µM / inhibition at 30 µM: read-out: Growth inhibition (%) HeLa
Protocol: (§1) The antiproliferative capacities of the prepared compounds were determined by employing the MTT assay against a panel of human adherent cancer cell lines isolated from breast (MCF-7 and MDA-MB-231) or cervical (HeLa and SiHa) tumors. All compounds were tested at two concentrations (10 and 30 μM). When >50% of antiproliferative capacity was obtained at 10 μM, the assays were repeated with a broader concentration range (0.1–30 μM), and IC50 values were calculated (Figure 2, Supplementary Table S1, Supplementary Figure S1). […] MTT assays were performed against the non-cancerous fibroblast cell line NIH/3T3 to obtain preliminary data on cancer selectivity of 16AABE and 16BABE. […] The ratios of IC50 values obtained against cancer cells and fibroblasts were in the range of 0.2 and 0.5, indicating substantial cancer selectivity of these two compounds (Table 1). Cancer cells were seeded onto a 96-well microplate for the proliferation assay at a density of 5000 cells/well. After 24 h of incubation, 200 μL of new medium containing the test compounds at 10 or 30 µM concentrations was added. Absorbance of the reduced MTT solution was measured at 545 nm using a microplate reader, with untreated cells serving as the negative control. In the case of active compounds (i.e., >50% cell growth inhibition at 10 μM), the assay was repeated with a series of dilutions, and sigmoidal dose–response curves were fitted to the obtained data. The IC50 values, representing the concentration at which cell proliferation was reduced by 50% compared with the untreated control, were calculated using GraphPad Prism 5 (GraphPad Software, San Diego, CA, USA). Each in vitro experiment was conducted on two microplates with a minimum of five parallel wells. […] Cisplatin was used as a reference agent.

MCF-7 [2] = assay: cells; set-up: MTT antiproliferative assay, absorbance at 545 nm, inhibition versus untreated control; conditions: Homo sapiens, MCF7; for inhibition at 10 µM / inhibition at 30 µM: read-out: Growth inhibition (%) MCF-7
Protocol: as §1

SiHa [3] = assay: cells; set-up: MTT antiproliferative assay, absorbance at 545 nm, inhibition versus untreated control; conditions: Homo sapiens; for inhibition at 10 µM / inhibition at 30 µM: read-out: Growth inhibition (%) SiHa
Protocol: as §1

MDA-MB-231 [4] = assay: cells; set-up: MTT antiproliferative assay, absorbance at 545 nm, inhibition versus untreated control; conditions: Homo sapiens; for inhibition at 10 µM / inhibition at 30 µM: read-out: Growth inhibition (%) MDA-MB-231
Protocol: as §1

estrogen receptor (ERα) = target: T1, estrogen receptor (ERα) (Homo sapiens, UniProt P03372); assay: estrogen-responsive luciferase reporter assay in T47D-KBluc cells (agonism); assay type: cell-based
T1 construct: gene ESR1
T1 sequence (P03372 whole entry): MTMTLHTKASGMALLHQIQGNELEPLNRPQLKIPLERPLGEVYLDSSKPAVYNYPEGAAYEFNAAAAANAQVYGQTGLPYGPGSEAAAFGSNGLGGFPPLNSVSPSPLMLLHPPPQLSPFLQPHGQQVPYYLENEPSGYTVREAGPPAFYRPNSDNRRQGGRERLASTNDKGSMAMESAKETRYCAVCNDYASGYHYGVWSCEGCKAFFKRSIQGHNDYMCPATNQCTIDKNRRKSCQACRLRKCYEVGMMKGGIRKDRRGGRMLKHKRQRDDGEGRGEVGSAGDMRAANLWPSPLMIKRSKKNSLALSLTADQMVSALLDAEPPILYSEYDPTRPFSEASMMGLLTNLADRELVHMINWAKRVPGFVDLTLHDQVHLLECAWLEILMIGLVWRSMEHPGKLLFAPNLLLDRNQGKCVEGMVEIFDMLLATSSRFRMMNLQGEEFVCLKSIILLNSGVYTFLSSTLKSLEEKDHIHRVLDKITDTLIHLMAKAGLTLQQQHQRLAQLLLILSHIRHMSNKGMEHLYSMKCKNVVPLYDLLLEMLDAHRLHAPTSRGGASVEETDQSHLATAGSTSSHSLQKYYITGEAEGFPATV

HeLa [5] = assay: cells; set-up: MTT assay, growth inhibition of cells relative to untreated control; conditions: Homo sapiens, HeLa; for inhibition at 10 µM: read-out: Growth inhibition (%) at 10 uM; for inhibition at 30 µM: read-out: Growth inhibition (%) at 30 uM
Protocol: (§2) Cancer cells were seeded onto a 96-well microplate for the proliferation assay at a density of 5000 cells/well. After 24 h of incubation, 200 μL of new medium containing the test compounds at 10 or 30 µM concentrations was added. Absorbance of the reduced MTT solution was measured at 545 nm using a microplate reader, with untreated cells serving as the negative control. In the case of active compounds (i.e., >50% cell growth inhibition at 10 μM), the assay was repeated with a series of dilutions, and sigmoidal dose–response curves were fitted to the obtained data. The IC50 values, representing the concentration at which cell proliferation was reduced by 50% compared with the untreated control, were calculated using GraphPad Prism 5 (GraphPad Software, San Diego, CA, USA). Each in vitro experiment was conducted on two microplates with a minimum of five parallel wells. […] Cisplatin was used as a reference agent. The antiproliferative capacities of the prepared compounds were determined by employing the MTT assay against a panel of human adherent cancer cell lines isolated from breast (MCF-7 and MDA-MB-231) or cervical (HeLa and SiHa) tumors. All compounds were tested at two concentrations (10 and 30 μM). When >50% of antiproliferative capacity was obtained at 10 μM, the assays were repeated with a broader concentration range (0.1–30 μM), and IC50 values were calculated (Figure 2, Supplementary Table S1, Supplementary Figure S1). […] MTT assays were performed against the non-cancerous fibroblast cell line NIH/3T3 to obtain preliminary data on cancer selectivity of 16AABE and 16BABE. […] The ratios of IC50 values obtained against cancer cells and fibroblasts were in the range of 0.2 and 0.5, indicating substantial cancer selectivity of these two compounds (Table 1).

MCF-7 [6] = assay: cells; set-up: MTT assay, growth inhibition of cells relative to untreated control; conditions: Homo sapiens, MCF7; for inhibition at 10 µM: read-out: Growth inhibition (%) at 10 uM; for inhibition at 30 µM: read-out: Growth inhibition (%) at 30 uM
Protocol: as §2

SiHa [7] = assay: cells; set-up: MTT assay, growth inhibition of cells relative to untreated control; conditions: Homo sapiens, SiHa; for inhibition at 10 µM: read-out: Growth inhibition (%) at 10 uM; for inhibition at 30 µM: read-out: Growth inhibition (%) at 30 uM
Protocol: as §2

MDA-MB-231 [8] = assay: cells; set-up: MTT assay, growth inhibition of cells relative to untreated control; conditions: Homo sapiens, MDA-MB-231; for inhibition at 10 µM: read-out: Growth inhibition (%) at 10 uM; for inhibition at 30 µM: read-out: Growth inhibition (%) at 30 uM
Protocol: as §2

NIH/3T3 = assay: cells; set-up: MTT assay, growth inhibition of cells relative to untreated control; conditions: Mus musculus, NIH3T3; read-out: Growth inhibition (%) at 30 uM
Protocol: as §2

in vitro = assay: in vitro; set-up: MTT assay on non-cancerous NIH/3T3 fibroblasts, absorbance at 545 nm, selectivity counter-screen; conditions: mouse, nih/3t3 cells; read-out: IC50 NIH/3T3
Protocol: The antiproliferative capacities of the prepared compounds were determined by employing the MTT assay against a panel of human adherent cancer cell lines isolated from breast (MCF-7 and MDA-MB-231) or cervical (HeLa and SiHa) tumors. All compounds were tested at two concentrations (10 and 30 μM). When >50% of antiproliferative capacity was obtained at 10 μM, the assays were repeated with a broader concentration range (0.1–30 μM), and IC50 values were calculated (Figure 2, Supplementary Table S1, Supplementary Figure S1). […] MTT assays were performed against the non-cancerous fibroblast cell line NIH/3T3 to obtain preliminary data on cancer selectivity of 16AABE and 16BABE. […] The ratios of IC50 values obtained against cancer cells and fibroblasts were in the range of 0.2 and 0.5, indicating substantial cancer selectivity of these two compounds (Table 1). The antiproliferative activity of the presented compounds were evaluated against a panel of human gynecological cancer cell lines. MCF-7 and MDA-MB-231 cell lines were derived from breast cancers, while HeLa and SiHa cell lines originated from cervical cancers of different pathological backgrounds. […] Absorbance of the reduced MTT solution was measured at 545 nm using a microplate reader, with untreated cells serving as the negative control. […]

Row | SMILES | inhibition at 10 µM (HeLa [1]) [%] | inhibition at 30 µM (HeLa [1]) [%] | inhibition at 10 µM (MCF-7 [2]) [%] | inhibition at 30 µM (MCF-7 [2]) [%] | inhibition at 10 µM (SiHa [3]) [%] | inhibition at 30 µM (SiHa [3]) [%] | inhibition at 10 µM (MDA-MB-231 [4]) [%] | inhibition at 30 µM (MDA-MB-231 [4]) [%] | inhibition at 10 µM (HeLa [5]) [%] | inhibition at 30 µM (HeLa [5]) [%] | inhibition at 10 µM (MCF-7 [6]) [%] | inhibition at 30 µM (MCF-7 [6]) [%] | inhibition at 10 µM (SiHa [7]) [%] | inhibition at 30 µM (SiHa [7]) [%] | inhibition at 10 µM (MDA-MB-231 [8]) [%] | inhibition at 30 µM (MDA-MB-231 [8]) [%] | inhibition at 30 µM (NIH/3T3) [%] | IC50 (HeLa [1]) [µM] | IC50 (MCF-7 [2]) [µM] | IC50 (SiHa [3]) [µM] | also measured
1 | C[C@]12CC[C@@H]3c4ccc(OCc5ccccc5)cc4CC[C@H]3[C@@H]1C[C@H](CN=[N+]=[N-])[C@@H]2O [compound 1, 1] | 33.97 ± 0.33 | 93.1 ± 0.21 | 38.8 ± 0.81 | 92.64 ± 0.22 | < 20 | 89.93 ± 0.2 | 34.07 ± 0.27 | 92.92 ± 0.09 | – | – | – | – | – | – | – | – | – | – | – | – | –
2 | C[C@]12CC[C@@H]3c4ccc(OCc5ccccc5)cc4CC[C@H]3[C@@H]1C[C@@H](CN=[N+]=[N-])[C@H]2O [compound 4, 4] | 26.6 ± 1.78 | 52.89 ± 0.49 | < 20 | 52.4 ± 2.5 | < 20 | 31.9 ± 0.69 | 25.1 ± 2.83 | 57.3 ± 0.98 | – | – | – | – | – | – | – | – | – | – | – | – | –
3 | C[C@]12CC[C@@H]3c4ccc(OCc5ccccc5)cc4CC[C@H]3[C@@H]1C[C@H](CN=[N+]=[N-])C2=O [16BABE, 16β-azidomethyl-3-benzyloxyestra-1,3,5(10)-trien-17-on] | – | – | – | – | – | – | – | – | 93.4 ± 0.13 | 94.33 ± 0.32 | 92.94 ± 0.37 | 93.79 ± 0.4 | 90.73 ± 0.53 | 91.08 ± 0.55 | 93.65 ± 0.24 | 95.03 ± 0.23 | 94.8 ± 1.63 | 4.6 | 3.15 | 3.85 | EC50 (estrogen receptor (ERα)): ~0.178 µM; IC50 (MDA-MB-231 [4]): 8.13 µM; CC50 (in vitro): 18.9 µM
4 | C[C@]12CC[C@@H]3c4ccc(OCc5ccccc5)cc4CC[C@H]3[C@@H]1C[C@@H](CN=[N+]=[N-])C2=O [16AABE, 16α-azidomethyl-3-benzyloxyestra-1,3,5(10)-trien-17-on] | – | – | – | – | – | – | – | – | 93.22 ± 0.92 | 93.96 ± 0.23 | 91.73 ± 0.71 | 93.85 ± 0.22 | 90.1 ± 0.66 | 91.48 ± 0.55 | 93.53 ± 0.17 | 95.11 ± 0.31 | 98.29 ± 0.41 | 5.01 | 3.13 | 4.1 | IC50 (MDA-MB-231 [4]): 4.72 µM; CC50 (in vitro): 13.6 µM
5 | C[C@]12CC[C@@H]3c4ccc(OCc5ccccc5)cc4CC[C@H]3[C@@H]1C[C@H](CN=[N+]=[N-])[C@H]2O [compound 2, 2] | 29.1 ± 1.06 | 55.5 ± 2.06 | 20.2 ± 2.19 | 51.9 ± 1.85 | – | 43.2 ± 2.58 | 45.1 ± 1.69 | 64.2 ± 1.39 | – | – | – | – | – | – | – | – | – | – | – | – | –
6 | C[C@]12CC[C@@H]3c4ccc(OCc5ccccc5)cc4CC[C@H]3[C@@H]1C[C@@H](CN=[N+]=[N-])[C@@H]2O [compound 3, 3] | 25 ± 2.26 | 93.35 ± 0.32 | 27.3 ± 1.28 | 92.55 ± 0.18 | < 20 | 86.46 ± 0.36 | 33.5 ± 2.92 | 89 ± 0.9 | – | – | – | – | – | – | – | – | – | – | – | – | –
